Measured values: patent US10570152B2, “Antibacterial therapeutics and prophylactics” (VYOME BIOSCIENCES PVT. LTD., priority 2015, dated 2020)
≈ marks a conversion by molar mass, not a printed value.

How the values were obtained:
Experiment in all cases: MIC by micro broth dilution
Type in all cases: cell-based
A. baumannii ATCC 1906 = conditions: for MIC: Acinetobacter baumannii, ATCC1906, read-out: Minimum inhibitory concentration (MIC)
Protocol: (§1) MIC of DART molecules were determined by micro broth dilution as per CLSI guidelines. Bacterial strains were cultured in Brain Heart Infusion Agar (BHIA) at 37° C. for 24 h. For MIC determination, BHI broth (100 μl) was added to each of the wells of a 96 well plate. 100 μl of broth containing drug was added to the first well (1A to 1H) and thereafter serial (double) dilutions were carried out for up to 10 wells (column 1 to column 10 of the 96 well plate). Bacterial inoculum was prepared by adjusting the bacterial culture turbidity to 0.5 McFarland standard (approximately 1.5×10^8 cells/ml) and further diluted (100 times with sterile BHI broth). Diluted bacterial suspension (100 μl) was added to each well except sterility control wells (column 12 of 96 well plate). The plates were incubated at 37° C. for 24 h. The MIC of the test compound was measured after addition of Alamar blue dye.

E. aerogenes M2-1 = conditions: for MIC: Klebsiella aerogenes, M21, read-out: Minimum inhibitory concentration (MIC)
Protocol: as §1

E. aerogenes NCIM 5139 = conditions: for MIC: Klebsiella aerogenes, NCIM5139, read-out: Minimum inhibitory concentration (MIC)
Protocol: as §1

E. coli BAA 196 = conditions: for MIC: Escherichia coli, BAA196, read-out: Minimum inhibitory concentration (MIC)
Protocol: as §1

E. coli MTCC 1687 = conditions: for MIC: Escherichia coli, MTCC1687, read-out: Minimum inhibitory concentration (MIC)
Protocol: as §1

E. faecium NCIM 5421 = conditions: for MIC: Enterococcus faecium, NCIM5421, read-out: Minimum inhibitory concentration (MIC)
Protocol: as §1

K. pneumonia ATCC 13883 = conditions: for activity in words: Klebsiella pneumonia (susceptible); for MIC: Klebsiella pneumoniae, ATCC13883, read-out: Minimum inhibitory concentration (MIC)
Protocol: as §1

P. aeruginosa ATCC 27853 = conditions: for MIC: Pseudomonas aeruginosa, ATCC27853, read-out: Minimum inhibitory concentration (MIC)
Protocol: as §1

S. aureus ATCC 43300 = conditions: S. aureus ATCC 43300; for MIC: Staphylococcus aureus, ATCC43300, read-out: Minimum inhibitory concentration (MIC)
Protocol: as §1

S. aureus CCARM 3505 = conditions: for MIC: Staphylococcus aureus, CCARM3505, read-out: Minimum inhibitory concentration (MIC)
Protocol: as §1

S. aureus MTCC 6908 = conditions: for MIC: Staphylococcus aureus, MTCC6908, read-out: Minimum inhibitory concentration (MIC)
Protocol: as §1

[1] = tested on: S. epidermidis ATCC 35984; conditions: for MIC: Staphylococcus epidermidis, ATCC35984, read-out: Minimum inhibitory concentration (MIC)
Protocol: as §1

S. epidermidis S12-1 = conditions: for MIC: Staphylococcus epidermidis, S121, read-out: Minimum inhibitory concentration (MIC)
Protocol: as §1

A. baumannii CCARM 12001 = tested on: A. baumannii CCARM 12001
Protocol: as §1

A. baumannii CCARM 12020 = tested on: A. baumannii CCARM 12020
Protocol: as §1

Row | Compound | MIC (E. coli BAA 196) | MIC (E. coli MTCC 1687) | MIC (E. faecium NCIM 5421) | MIC (S. aureus ATCC 43300) | MIC (S. aureus CCARM 3505) | MIC (S. aureus MTCC 6908) | MIC [1] | MIC (S. epidermidis S12-1) | activity in words (K. pneumonia ATCC 13883) | also measured
1 | CC1Sc2c(C(=O)O)c(=O)c3cc(F)c(N4CCN(CC(=O)Nc5ncc([N+](=O)[O-])s5)CC4)cc3n21 (stereo not drawn) [Compound 6, 6-Fluoro-1-methyl-7-(4-(2-((5-nitrothiazol-2-yl)amino)-2-oxoethyl)piperazin-1-yl)-4-oxo-1H,4H-[1,3]-thiazeto[3,2-a]quinoline-3-carboxylic acid] | 16 µg/mL (≈ 29.9 µM) | 1 µg/mL (≈ 1.87 µM) | 0.25 µg/mL (≈ 0.468 µM) | < 0.13 µg/mL | 4 µg/mL (≈ 7.48 µM) | 0.1 µg/mL (≈ 0.187 µM) | < 0.03 µg/mL | 4 µg/mL (≈ 7.48 µM) | active | MIC (A. baumannii ATCC 1906): 8 µg/mL (≈ 15 µM); MIC (E. aerogenes M2-1): 4 µg/mL (≈ 7.48 µM); MIC (E. aerogenes NCIM 5139): 4 µg/mL (≈ 7.48 µM); MIC (K. pneumonia ATCC 13883; K. pneumonia ATCC 13883): 0.25 µg/mL (≈ 0.468 µM); MIC (P. aeruginosa ATCC 27853): 8 µg/mL (≈ 15 µM)
2 | O=C(N[C@@H]1CCCCN(c2c(F)cc3c(=O)c(C(=O)O)cn(C4CC4)c3c2Cl)C1)c1ccc([N+](=O)[O-])o1 [Compound 16] |  |  |  |  |  |  |  |  | active | Minimum inhibitory concentration (MIC) (A. baumannii ATCC 1906): .05 µg/mL (≈ 0.0938 µM); Minimum inhibitory concentration (MIC) (A. baumannii CCARM 12001): 16 µg/mL (≈ 30 µM); Minimum inhibitory concentration (MIC) (A. baumannii CCARM 12020): >16 µg/mL; Minimum inhibitory concentration (MIC) (E. aerogenes M2-1): 4 µg/mL (≈ 7.51 µM); Minimum inhibitory concentration (MIC) (E. aerogenes NCIM 5139): 2 µg/mL (≈ 3.75 µM); Minimum inhibitory concentration (MIC) (E. coli BAA 196): >16 µg/mL; Minimum inhibitory concentration (MIC) (E. coli MTCC 1687): 4 µg/mL (≈ 7.51 µM); Minimum inhibitory concentration (MIC) (E. faecium NCIM 5421): 0.12 µg/mL (≈ 0.225 µM); Minimum inhibitory concentration (MIC) (K. pneumonia ATCC 13883; K. pneumonia ATCC 13883): 0.25 µg/mL (≈ 0.469 µM); Minimum inhibitory concentration (MIC) (P. aeruginosa ATCC 27853): 2 µg/mL (≈ 3.75 µM); Minimum inhibitory concentration (MIC) (S. aureus ATCC 43300): <0.01 µg/mL; Minimum inhibitory concentration (MIC) (S. aureus CCARM 3505): 0.5 µg/mL (≈ 0.938 µM); Minimum inhibitory concentration (MIC) (S. aureus MTCC 6908): 0.25 µg/mL (≈ 0.469 µM); Minimum inhibitory concentration (MIC) [1]: <0.03 µg/mL; Minimum inhibitory concentration (MIC) (S. epidermidis S12-1): 0.13 µg/mL (≈ 0.244 µM)
3 | CC1Sc2c(C(=O)O)c(=O)c3cc(F)c(N4CCN(Cc5nc6ccc(N)cc6[nH]5)CC4)cc3n21 (stereo not drawn) [Compound 20, 7-(4-((6-Amino-1H-benzo[d]imidazol-2-yl)methyl)piperazin-1-yl)-6-fluoro-1-methyl-4-oxo-1H,4H-[1,3]thiazeto[3,2-a]quinoline-3-carboxylic acid] | > 16 µg/mL | 1 µg/mL (≈ 2.02 µM) | 1 µg/mL (≈ 2.02 µM) | 0.5 µg/mL (≈ 1.01 µM) | > 16 µg/mL | 8 µg/mL (≈ 16.2 µM) | 0.13 µg/mL (≈ 0.263 µM) | > 16 µg/mL | active | MIC (A. baumannii ATCC 1906): 8 µg/mL (≈ 16.2 µM); MIC (E. aerogenes M2-1): 4 µg/mL (≈ 8.09 µM); MIC (E. aerogenes NCIM 5139): 0.5 µg/mL (≈ 1.01 µM); MIC (K. pneumonia ATCC 13883; K. pneumonia ATCC 13883): 0.25 µg/mL (≈ 0.506 µM); MIC (P. aeruginosa ATCC 27853): 4 µg/mL (≈ 8.09 µM)
4 | CC(=O)NC[C@H]1CN(c2ccc(N3CCN(C(=O)c4cccc[n+]4[O-])CC3)c(F)c2)C(=O)O1 [Compound 78, (S)-2-(4-(4-(5-(acetamidomethyl)-2-oxooxazolidin-3-yl)-2-fluorophenyl)piperazine-1-carbonyl)-pyridine 1-oxide] |  |  | > 16 µg/mL | 16 µg/mL (≈ 35 µM) | > 16 µg/mL | 8 µg/mL (≈ 17.5 µM) | 8 µg/mL (≈ 17.5 µM) | 8 µg/mL (≈ 17.5 µM) |  | 
5 | CC(=O)NC[C@H]1CN(c2ccc(N3CCN(C(=O)NC(=N)N)CC3)c(F)c2)C(=O)O1 [Compound 84, (S)-4-(4-(5-(Acetamidomethyl)-2-oxooxazolidin-3-yl)-2-fluorophenyl)-N-carbamimidoylpiperazine-1-carboxamide] |  |  | > 16 µg/mL | > 16 µg/mL | > 16 µg/mL | > 16 µg/mL | 16 µg/mL (≈ 38 µM) | 8 µg/mL (≈ 19 µM) |  | 
6 | CCCCCCCCCCC[CH2][SnH2][CH2][C@@H](NC(C)=O)C(=O)N1CCN(c2ccc(N3CC(CNC(C)=O)OC3=O)cc2F)CC1 (stereo partly drawn) [Compound 108, (S)—N-[2-(4-{4-[5-(Acetylamino-methyl)-2-oxo-oxazolidin-3-yl]-2-fluoro-phenyl}-piperazin-1-yl)-1-dodecylstannanylmethyl-2-oxo-ethyl]-acetamide] |  |  |  |  |  |  |  |  |  | Minimum inhibitory concentration (MIC) (E. faecium NCIM 5421): >16 µg/mL; Minimum inhibitory concentration (MIC) (S. aureus ATCC 43300): >16 µg/mL; Minimum inhibitory concentration (MIC) (S. aureus CCARM 3505): >16 µg/mL; Minimum inhibitory concentration (MIC) (S. aureus MTCC 6908): >16 µg/mL; Minimum inhibitory concentration (MIC) [1]: >16 µg/mL; Minimum inhibitory concentration (MIC) (S. epidermidis S12-1): >16 µg/mL
7 | CC(=O)NC[C@H]1CN(c2ccc(N3CCN(C(=O)c4coc(N)n4)CC3)c(F)c2)C(=O)O1 [Compound 110, (S)—N-(3-{4-[4-(2-amino-oxazole-4-carbonyl)-piperazin-1-yl]-3-fluoro-phenyl}-2-oxo-oxazolidin-5-ylmethyl)-acetamide] |  |  | > 16 µg/mL | > 16 µg/mL | > 16 µg/mL | > 16 µg/mL | > 16 µg/mL | > 16 µg/mL |  | 

Continued, in another order:

Row | MIC (E. coli BAA 196) | MIC (E. coli MTCC 1687) | MIC (E. faecium NCIM 5421) | MIC (S. aureus ATCC 43300) | MIC (S. aureus CCARM 3505) | MIC (S. aureus MTCC 6908) | MIC [1] | MIC (S. epidermidis S12-1) | Compound | activity in words (K. pneumonia ATCC 13883) | also measured
8 | 4 µg/mL (≈ 8.8 µM) | 2 µg/mL (≈ 4.4 µM) | 0.06 µg/mL (≈ 0.132 µM) | 0.25 µg/mL (≈ 0.55 µM) | 16 µg/mL (≈ 35.2 µM) | 0.5 µg/mL (≈ 1.1 µM) | 0.13 µg/mL (≈ 0.286 µM) | 8 µg/mL (≈ 17.6 µM) | CC1Sc2c(C(=O)O)c(=O)c3cc(F)c(N4CCN(C(=O)c5ccccn5)CC4)cc3n21 (stereo not drawn) [Compound 31, 6-Fluoro-1-methyl-4-oxo-7-(4-picolinoylpiperazin-1-yl)-1H,4H-[1,3]thiazeto[3,2-a]quinoline-3-carboxylic acid] | active | MIC (A. baumannii ATCC 1906): 2 µg/mL (≈ 4.4 µM); MIC (E. aerogenes M2-1): 8 µg/mL (≈ 17.6 µM); MIC (E. aerogenes NCIM 5139): 1 µg/mL (≈ 2.2 µM); MIC (K. pneumonia ATCC 13883; K. pneumonia ATCC 13883): 0.12 µg/mL (≈ 0.264 µM); MIC (P. aeruginosa ATCC 27853): 8 µg/mL (≈ 17.6 µM)
9 | > 16 µg/mL | > 16 µg/mL | 1 µg/mL (≈ 2.13 µM) | 0.13 µg/mL (≈ 0.276 µM) | 8 µg/mL (≈ 17 µM) | 4 µg/mL (≈ 8.5 µM) | 0.13 µg/mL (≈ 0.276 µM) | 8 µg/mL (≈ 17 µM) | CC1Sc2c(C(=O)O)c(=O)c3cc(F)c(N4CCN(C(=O)c5cccc[n+]5[O-])CC4)cc3n21 (stereo not drawn) [Compound 34, 2-(4-(3-Carboxy-6-fluoro-1-methyl-4-oxo-1H,4H-[1,3]thiazeto[3,2-a]quinolin-7-yl)piperazine-1-carbonyl)pyridine-1-oxide] |  | 
10 | > 16 µg/mL | 0.25 µg/mL (≈ 0.557 µM) | > 16 µg/mL | 8 µg/mL (≈ 17.8 µM) | > 16 µg/mL | 8 µg/mL (≈ 17.8 µM) | > 16 µg/mL | > 16 µg/mL | CC1Sc2c(C(=O)O)c(=O)c3cc(F)c(N4CCN(C(=O)CNC(=N)N)CC4)cc3n21 (stereo not drawn) [Compound 43, 7-(4-(Carbamimidoylglycyl)piperazin-1-yl)-6-fluoro-1-methyl-4-oxo-1H,4H-[1,3]thiazeto[3,2-a]quinoline-3-carboxylic acid] |  | 
11 |  |  | > 16 µg/mL | 16 µg/mL (≈ 31.2 µM) | > 16 µg/mL | 16 µg/mL (≈ 31.2 µM) | > 16 µg/mL | > 16 µg/mL | CC(=O)NC[C@H]1CN(c2ccc(N3CCN(C(=O)CNC(=O)c4cccc[n+]4[O-])CC3)c(F)c2)C(=O)N1 [Compound 80, (S)-2-((2-(4-(4-(4-(Acetamidomethyl)-2-oxoimidazolidin-1-yl)-2-fluorophenyl)piperazin-1-yl)-2-oxoethyl)carbamoyl)pyridine 1-oxide] |  | 
12 |  |  | > 16 µg/mL | 16 µg/mL (≈ 30.3 µM) | > 16 µg/mL | > 16 µg/mL | > 16 µg/mL | > 16 µg/mL | CC1Sc2c(C(=O)O)c(=O)c3cc(F)c(N4CCN(C(=O)CNC(=O)c5cccc[n+]5[O-])CC4)cc3n21 (stereo not drawn) [Compound 111, 2-((2-(4-(3-carboxy-6-fluoro-1-methyl-4-oxo-1H,4H-[1,3]thiazeto[3,2-a]quinolin-7-yl)piperazin-1-yl)-2-oxoethyl)carbamoyl)pyridine 1-oxide] |  | 
13 |  | 1 µg/mL (≈ 1.9 µM) | > 16 µg/mL | 0.13 µg/mL (≈ 0.247 µM) | > 16 µg/mL | 0.25 µg/mL (≈ 0.476 µM) | 0.13 µg/mL (≈ 0.247 µM) | 8 µg/mL (≈ 15.2 µM) | CC1Sc2c(C(=O)O)c(=O)c3cc(F)c(N4CCN(CC(=O)NC(=O)Nc5ccccc5)CC4)cc3n21 (stereo not drawn) [Compound 112, 6-Fluoro-1-methyl-4-oxo-7-(4-(2-oxo-2-(3-phenylureido)ethyl)piperazin-1-yl)-1H,4H-[1,3]thiazeto-[3,2-a]quinoline-3-carboxylic acid] |  | 
